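Protocol summary: plate cells (96-well), add compound at 5 concentrations, incubate 48 h, interpolate endpoints linearly. Abbreviation: GI50, concentration required for 50% inhibition of growth. The concentration for full growth arrest is given as TGI.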 Some results are limits rather than exact numbers.

Test systems include MDA-MB-435; ACHN renal; HS 578T breast; SK-MEL-5 melanoma; SR leukemia; HOP-92 NSCLC; SK-OV-3 ovarian; SF-295 CNS; A549 NSCLC; BT-549 breast; PC-3 prostate; T-47D breast; HCT-15 colon; UACC-62 melanoma; MDA-N; HCC-2998 colon; NCI-H522 lung; SNB-75 CNS.
Experiment in all cases: NCI anticancer screen, dose series, 48 h

In the case of `COC1OC2COC(c3ccccc3)OC2C(O)C1OC(=S)c1ccccc1` (stereo not drawn), the TGI in the assay on MDA-MB-435 was 4.37 µM; in the assay on ACHN renal, 67 µM; in the assay with HS 578T breast it was greater than 100 µM; in the assay with SK-MEL-5 melanoma it was 61.3 µM; in the assay on SR leukemia, 85.5 µM; in the assay on HOP-92 NSCLC it was greater than 100 µM. The TGI in the assay on SK-OV-3 ovarian was greater than 100 µM; in the assay on SF-295 CNS, greater than 100 µM; with A549 NSCLC it was greater than 100 µM; with BT-549 breast, greater than 100 µM; in the assay with PC-3 prostate, 57.2 µM; in the assay on T-47D breast it was 85 µM. Besides, the values for the TGI with HCT-15 colon, with UACC-62 melanoma and with MDA-N were greater than 100 µM, greater than 100 µM and 80.9 µM, respectively.
For the compound `OC(C#CCN1CCCC1)(c1ccccc1)c1ccccc1Cl` (stereo not drawn), the TGI is 51.5 µM with MDA-MB-435; 71.3 µM with ACHN renal; 40.4 µM in the assay with HCC-2998 colon; 73.6 µM with HS 578T breast; 31.5 µM with SK-MEL-5 melanoma; greater than 100 µM in the assay with SR leukemia. In addition, the TGI is greater than 100 µM in the assay with SK-OV-3 ovarian; 45.8 µM in the assay with SF-295 CNS; greater than 100 µM in the assay on A549 NSCLC; greater than 100 µM with BT-549 breast; 41.6 µM in the assay on NCI-H522 lung; greater than 100 µM in the assay on SNB-75 CNS. In addition, the TGI with PC-3 prostate was 80.2 µM; with T-47D breast it was greater than 100 µM; in the assay on HCT-15 colon, greater than 100 µM; in the assay on UACC-62 melanoma it was 57.5 µM; with MDA-N it was 50.9 µM.
As for `O=C1N(Cc2ccccc2)C2CSCC2N1Cc1ccccc1` (stereo not drawn), the TGI in the assay with MDA-MB-435 was 51.5 µM; in the assay with ACHN renal, greater than 100 µM; in the assay on HCC-2998 colon it was 62.9 µM; with HS 578T breast, 66.5 µM; in the assay with SK-MEL-5 melanoma, 30.3 µM; with SR leukemia, 93.6 µM. For the same compound, the TGI in the assay on HOP-92 NSCLC is 77.7 µM; in the assay on SK-OV-3 ovarian it was greater than 100 µM; in the assay with SF-295 CNS it was greater than 100 µM; in the assay with A549 NSCLC, greater than 100 µM; in the assay with BT-549 breast it was 53.5 µM; with NCI-H522 lung it was 24.2 µM. Further, the TGI was greater than 100 µM in the assay with SNB-75 CNS; greater than 100 µM in the assay with PC-3 prostate; 91.8 µM with T-47D breast; 79.2 µM with UACC-62 melanoma; 80 µM in the assay on MDA-N.
With `COc1ccc2oc(=N)c(C(=O)Nc3ccccc3)cc2c1`, the TGI in the assay with MDA-MB-435 is 32.3 µM; in the assay with ACHN renal, greater than 100 µM; in the assay on HS 578T breast, 39.6 µM; in the assay on SK-MEL-5 melanoma, greater than 100 µM; in the assay with SR leukemia, greater than 100 µM; in the assay on SK-OV-3 ovarian, 39.7 µM. In addition, the TGI is 43.9 µM in the assay on SF-295 CNS; greater than 100 µM in the assay with A549 NSCLC; 43.8 µM with BT-549 breast; 6.4 µM in the assay with NCI-H522 lung; 28 µM in the assay with SNB-75 CNS; greater than 100 µM with PC-3 prostate. Moreover, the TGI with T-47D breast is greater than 100 µM; in the assay with HCT-15 colon it was greater than 100 µM; in the assay with MDA-N, 48.4 µM.
For the compound `C/C1=C\[C@H](C)C[C@H](C)OC(=O)[C@H](C)NC(=O)[C@@H](Cc2ccc(O)c(Br)c2)N(C)C(=O)[C@H](C)NC(=O)[C@@H](C)C1`, the TGI was greater than 25 µM in the assay on MDA-MB-435; 1.04 µM with ACHN renal; greater than 25 µM in the assay with HCC-2998 colon; 3.76 µM in the assay with HS 578T breast; 0.315 µM in the assay with SK-MEL-5 melanoma; 0.177 µM with HOP-92 NSCLC. The TGI in the assay with SK-OV-3 ovarian was 2.04 µM; in the assay on SF-295 CNS, 4.9 µM; with A549 NSCLC it was greater than 25 µM; in the assay with BT-549 breast it was 4.12 µM; in the assay with NCI-H522 lung, 1.35 µM; in the assay on SNB-75 CNS, 0.0904 µM. In addition, the TGI with PC-3 prostate was 24.6 µM; with T-47D breast, greater than 25 µM; in the assay with HCT-15 colon, greater than 25 µM; in the assay with UACC-62 melanoma, greater than 25 µM; in the assay on MDA-N, greater than 25 µM.
For `C=CC1(C)CC(=O)C2(O)C(C)(O1)C(OC(C)=O)C(O)C1C(C)(C)CCC(O)C12C` (stereo not drawn), the TGI with HCC-2998 colon is greater than 150 µM; with SK-MEL-5 melanoma, greater than 102 µM; in the assay on HOP-92 NSCLC, greater than 150 µM; in the assay on SK-OV-3 ovarian it was greater than 120 µM; in the assay on SF-295 CNS, greater than 150 µM; in the assay with A549 NSCLC, greater than 150 µM. The TGI with NCI-H522 lung was greater than 150 µM; with SNB-75 CNS, greater than 150 µM; with HCT-15 colon it was greater than 150 µM; in the assay with UACC-62 melanoma, 101 µM. Also, the values for the GI50 in the assay with HOP-92 NSCLC and in the assay on SNB-75 CNS were 20.3 µM and 4.13 µM, respectively.

For the origin of these results see PubChem BioAssay (NCI).
